Laboratory results: the supplement of paper PMC10307832

Tests used:
Assay in all cases: relative viability (nuclei count vs DMSO), 5 days (fraction); higher = more cells survive
[1] = compound: C/C(=N\NC(=S)N1CCC1)/C2=CC=CC=N2 + O=C(CCCCCCC(=O)Nc1ccccc1)NO [Vorinostat] (partner 1 µM)
Outline: (§1)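 Five library-drug doses in √10 steps were combined with a fixed anchor-drug dose, or a single drug was given alone, by pin tool to lung cancer cell lines in 1536-well plates the day after seeding. Nuclei were stained and counted after 5 days. Relative viability is the nuclei count in treated wells over that in vehicle wells, taken as the median of duplicate plates.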

[2] = compound: C/C(=N\NC(=S)N1CCC1)/C2=CC=CC=N2 + Cc1nc(Nc2ncc(C(=O)Nc3c(C)cccc3Cl)s2)cc(N2CCN(CCO)CC2)n1 [Dasatinib] (partner 0.075 µM)
Outline: as §1

[3] = compound: C/C(=N\NC(=S)N1CCC1)/C2=CC=CC=N2 + CS(=O)(=O)N1CCN(Cc2cc3nc(-c4cccc5[nH]ncc45)nc(N4CCOCC4)c3s2)CC1 [Pictilisib] (partner 1 µM)
Outline: as §1

[4] = compound: C/C(=N\NC(=S)N1CCC1)/C2=CC=CC=N2 + C[C@@H](Oc1cc(-c2cnn(C3CCNCC3)c2)cnc1N)c1c(Cl)ccc(F)c1Cl [Crizotinib] (partner 1 µM)
Outline: as §1

Cell Line	relative viability ([1]; first compound 0.05 µM)	relative viability ([1]; first compound 0.1581 µM)	relative viability ([1]; first compound 0.5 µM)	relative viability ([1]; first compound 1.581 µM)	relative viability ([1]; first compound 5 µM)	relative viability ([2]; first compound 0.05 µM)	relative viability ([2]; first compound 0.1581 µM)	relative viability ([2]; first compound 0.5 µM)	relative viability ([2]; first compound 1.581 µM)	relative viability ([2]; first compound 5 µM)	relative viability ([3]; first compound 0.05 µM)	relative viability ([3]; first compound 0.1581 µM)	relative viability ([3]; first compound 0.5 µM)	relative viability ([3]; first compound 1.581 µM)	relative viability ([3]; first compound 5 µM)	relative viability ([4]; first compound 0.05 µM)	relative viability ([4]; first compound 0.1581 µM)	relative viability ([4]; first compound 0.5 µM)	relative viability ([4]; first compound 1.581 µM)	relative viability ([4]; first compound 5 µM)
NCI-H23	0.15	0.11	0.124	0.0929	0.102	0.128	0.142	0.177	0.121	0.142	0.132	0.16	0.159	0.132	0.117	0.134	0.15	0.129	0.105	0.114
NCI-H322M	0.337	0.345	0.358	0.465	0.438	0.183	0.309	0.263	0.247	0.282	0.23	0.38	0.275	0.263	0.287	0.312	0.988	0.213	0.247	0.254
NCI-H358	0.0785	0.0651	0.0611	0.0639	0.0677	0.0836	0.0975	0.102	0.0651	0.092	0.178	0.214	0.19	0.142	0.163	0.13	0.157	0.14	0.102	0.144
NCI-H441	0.16	0.19	0.153	0.111	0.127	0.143	0.15	0.159	0.108	0.156	0.127	0.101	0.115	0.108	0.128	0.241	0.175	0.134	0.11	0.128
NCI-H460	0.0355	0.029	0.0302	0.03	0.0178	0.0259	0.0347	0.0269	0.0294	0.0151	0.108	0.12	0.0972	0.13	0.0516	0.0177	0.0116	0.014	0.0184	0.0064
NCI-H520	0.177	0.156	0.163	0.182	0.159	0.175	0.117	0.162	0.178	0.166	0.176	0.186	0.18	0.16	0.208	0.0874	0.112	0.123	0.104	0.116
NCI-H596	0.27	0.255	0.253	0.241	0.23	0.234	0.29	0.245	0.224	0.225	0.251	0.257	0.223	0.212	0.277	0.896	0.302	0.242	0.251	0.258
NCI-H647	0.115	0.0948	0.106	0.0935	0.102	0.0543	0.0651	0.0453	0.051	0.0532	0.0857	0.0882	0.104	0.0844	0.15	0.202	0.122	0.162	0.096	0.104
